In patent US12584916B2, “Method for measuring the modulation of the activation of a G protein-coupled receptor with GTP analogues” (CISBIO BIOASSAYS, priority 2019, dated 2026):

Legend:
Delta Opioid GPCR = molecular target: T1, Delta Opioid GPCR (Homo sapiens, UniProt P41143); experiment: Activation test according to format 2A on Delta Opioid GPCR (antagonist mode); format: biochemical; details: Example 15; SNC162 200 nM fixed; increasing antagonist concentration; GTPgN-octyl-C2 6 nM + DSV36S-d2 10 nM; CHO-DOR membranes; NaCl 300 mM; GDP 0.5 μM
T1 construct: purchased Perkin Elmer or Euroscreen
Description: All the reagents were diluted in TrisHCl buffer 50 mM pH 7.4, MgCl2 10 mM, BSA 0.1%, NaCl 10 mM or 100 mM or 300 mM or 500 mM (concentration specified in the legend of each figure), 0 or 0.5 or 1 μM GDP (concentration specified in the legend of each figure). The membranes were prepared 4× for distributing 1 or 10 μg/well (amount specified in the legend of each figure). The nucleotide GTPgS (nonspecific signal condition) was prepared 6.67× to obtain a final concentration in the wells of 100 μM. The test compounds (agonists or antagonists) were prepared 10× to obtain the final concentrations in the wells mentioned in the diagrams. […]
• Membranes expressing the GPCR and the G protein: 5 μL • Buffer or GTPgS nucleotide (for the nonspecific signal condition): 3 μL • Nonhydrolyzable/slowly hydrolyzable GTP analogue—donor or acceptor: 5 μL • anti G-alphai-donor or acceptor ligand: 5 μL • Buffer or test compounds (agonists and/or antagonists): 2 μL. The nonspecific signal (fluorescence background noise) was measured with wells containing an excess of GTPgS (100 μM). Reading the HTRF Signal […]
From the raw signals at 665 nm (for red acceptor—Cy5) or 520 nm (for green acceptors—AF488 or Fluorescein) and 620 nm, the HTRF Ratio was calculated from the following formula: HTRF Ratio=Signal at 665 nm or Signal at 520 nm/Signal at 620 nm*10.000. […]

[1] = molecular target: switch II domain of the alphai G-protein (Homo sapiens, UniProt P63096); experiment: Binding site of the anti-G-alphai antibodies
Chain of switch II domain of the alphai G-protein (P63096 whole entry, the tested form may be a part): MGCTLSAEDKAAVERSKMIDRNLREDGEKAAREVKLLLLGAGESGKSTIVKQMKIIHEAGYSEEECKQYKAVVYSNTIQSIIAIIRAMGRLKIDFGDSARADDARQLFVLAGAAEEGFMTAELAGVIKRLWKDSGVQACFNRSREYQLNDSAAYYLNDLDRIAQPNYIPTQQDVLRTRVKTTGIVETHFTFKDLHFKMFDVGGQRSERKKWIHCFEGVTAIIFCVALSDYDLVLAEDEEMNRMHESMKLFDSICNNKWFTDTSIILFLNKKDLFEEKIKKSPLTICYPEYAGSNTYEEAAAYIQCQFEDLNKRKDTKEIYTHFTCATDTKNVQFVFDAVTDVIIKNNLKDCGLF

T1 sequence (P41143 whole entry): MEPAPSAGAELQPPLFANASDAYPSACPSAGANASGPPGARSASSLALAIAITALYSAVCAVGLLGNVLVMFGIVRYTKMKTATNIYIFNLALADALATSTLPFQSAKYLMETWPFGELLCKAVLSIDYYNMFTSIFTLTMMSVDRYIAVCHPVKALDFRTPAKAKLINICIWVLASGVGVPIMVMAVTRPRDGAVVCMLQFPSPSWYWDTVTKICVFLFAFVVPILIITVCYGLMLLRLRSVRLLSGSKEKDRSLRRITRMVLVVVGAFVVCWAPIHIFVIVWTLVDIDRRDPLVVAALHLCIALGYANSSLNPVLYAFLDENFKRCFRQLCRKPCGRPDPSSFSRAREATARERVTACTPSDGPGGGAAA

Oc1ccc2c3c1O[C@H]1c4[nH]c5ccccc5c4C[C@@]4(O)[C@@H](C2)N(CC2CC2)CC[C@]314 [Naltrindole]
inhibition of activation by agonist SNC162 (decrease in the TR-FRET signal, HTRF Ratio) (Delta Opioid GPCR): inhibited

B1: DSV36S: anti-G-alphai antibody of Cisbio Bioassays, VH SEQ ID NO: 15 and VL SEQ ID NO: 16; used labeled with d2 or Lumi4Tb (antibody, V domains shown)
VH: EVQLQQSGAELVRPGALVKLSCKASGFNIKDYYMHWVKQRPEQGLEWIGWIDPENGNTIYDPKFQGKASITADTSSNTAYLQLSSLTSEDTAVYYCTRGGGYYSDWYFDVWGAGTTVTVSS
VL: QIVLTQSPAIMSASPGEKVTMTCSASSSVSYMHWYQQKSGTSPKRWIYDTSKLASGVPARFSGSGSGTSYSLTISSMEAEDAATYYCQQWSSNPPITFGAGTKLELK
modifications: d2 or Lumi4Tb label; Heavy chain variable domain (VH); Light chain variable domain (VL)
binding site on the alphai G-protein [1]: bind at the level of the switch II domain of the alphai G-protein
